Entries after “also recorded” stand apart in the source; their conditions may differ.
Tests used:
NFAT = NFAT and Kv1.5 confocal imaging; assay type: cell-based, human; conditions: A549 cells
Procedure: Imaging was performed using a Zeiss LSM 510 confocal microscope as described. Apoptag apoptosis detection kit (TUNEL stain, Serologicals, Norcross, Ga.) and the proliferating cell nuclear antigen (PCNA) antibody (DAKO, Carpinteria, Calif.) were used as per manufacturer's instructions on both formaldehyde fixed cells and paraffin-embedded tissue sections after antigen retrieval. Nuclear staining was made using 4′,6′-diamidino-2-phenylindole dihydrochloride (DAPI, 300 nM; Molecular Probes) in fixed tissue or cells as previously described Apoalert Annexin V kit (Clontech, Palo Alto, Calif.), cytochrome c antibody (Pharmingen, San Diego, Calif.), Apoptosis inducing factor (Santa Cruz Calif. USA) NFAT and Kv1.5 (Sigma) and mitotracker red (500 nM, Molecular Probes) were used as described by the company instructions. Mitochondrial membrane potential (ΔΨm) was studied in live cancer cultured cells, using tetramethylrhodamine methyl-ester perchlorate (TMRM) (20 nmol/L) for 30 minutes (37° C.) and Hoechst (1.0 umol/L) nuclear staining for 10 minutes (Molecular Probes, Canada).

cancer cells = assay: Free cytosolic calcium (fluo-3, confocal); assay type: cell-based, human; conditions: treated vs control cells

For OO [H2O2], the “Kv1.5 expression (confocal immunostaining)” value (NFAT) was “increased Kv1.5 expression”, the “NFAT activation (nuclear localization)” value (NFAT) was “blocked the activation of NFAT” and the “free cytosolic calcium concentration” value (cancer cells) was “decreases the intracellular Ca++ levels; also recorded: Control cells had more calcium than both DCA and H2O2 treated cells”.

— patent US8609724B2, “Method of treating cancer using dichloroacetate” (priority 2005, dated 2013)
